molecular target: T1, human protease activated receptor 1 (PAR1) (Homo sapiens, UniProt P25116); assay: Cellular functional in vitro test (aequorin luminescence, PAR1 test cell); format: cell-based; settings: recombinant HEK293-derived cell line expressing aequorin; PAR1 agonist added at its EC50 5 minutes after test substance
T1 construct: the cell stably expresses the endogenous human PAR1 receptor and the endogenous purinergic receptor P2Y2; endogenous in cells; host or cells: HEK293-derived recombinant cell line constitutively expressing mitochondrial aequorin
T1 sequence (P25116 22-425): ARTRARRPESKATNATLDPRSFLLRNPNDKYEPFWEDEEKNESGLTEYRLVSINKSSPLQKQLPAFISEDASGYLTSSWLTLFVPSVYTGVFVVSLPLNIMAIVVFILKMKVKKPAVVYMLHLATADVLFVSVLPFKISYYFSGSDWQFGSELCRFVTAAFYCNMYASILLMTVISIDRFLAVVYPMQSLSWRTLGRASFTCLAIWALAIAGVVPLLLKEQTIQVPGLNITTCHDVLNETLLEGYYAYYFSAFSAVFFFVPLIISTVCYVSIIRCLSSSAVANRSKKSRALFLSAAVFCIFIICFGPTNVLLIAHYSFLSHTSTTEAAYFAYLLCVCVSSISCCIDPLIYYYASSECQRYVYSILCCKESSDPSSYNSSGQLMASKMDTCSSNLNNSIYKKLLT
Description: 1.a) Cellular Functional In vitro Test
A recombinant cell line is used to identify […] of the human protease activated receptor 1 (PAR1) and to quantify the activity of the substances described herein. The cell is originally derived from a human embryonal kidney cell (HEK293; ATCC: American Type Culture Collection, Manassas, Va. 20108, USA). The test cell line constitutively expresses a modified form of the calcium-sensitive photoprotein aequorin which, after reconstitution with the cofactor coelenterazine, emits light when the free calcium concentration in the inner mitochondrial compartment is increased (Rizzuto R, Simpson A W, Brini M, Pozzan T.; Nature 1992, 358, 325-327). Additionally, the cell stably expresses the endogenous human PAR1 receptor and the endogenous purinergic receptor P2Y2. The resulting PAR1 test cell responds to stimulation of the endogenous PAR1 or P2Y2 receptor with an intracellular release of calcium ions, which can be quantified through resulting aequorin luminescence with a suitable luminometer (Milligan G, Marshall F, Rees S, Trends in Pharmacological Sciences 1996, 17, 235-237).
For testing the substance specificity, its effect after activation of the endogenous PAR1 receptor is compared to the effect after activation of the endogenous purinergic P2Y2 receptor which utilizes the same intracellular signal path.
Test procedure: The cells are plated out two days (48 hours) before the test in culture medium (DMEM F12, supplemented with 10% FCS, 2 mM glutamine, 20 mM HEPES, 1.4 mM pyruvate, 0.1 mg/ml gentamycin, 0.15% Na bicarbonate; BioWhittaker Cat.# BE04-687Q; B-4800 Verviers, Belgium) in 384-well microtitre plates and kept in a cell incubator (96% atmospheric humidity, 5% V/V CO2, 37° C.). On the day of the test, the culture medium is replaced by a tyrode solution (in mM: 140NaCl, 5l KCl, 1MgCl2, 2CaCl2, 20 glucose, 20 HEPES), which additionally contains the cofactor coelenterazine (25 μM) and glutathione (4 mM), and the microtitre plate is then incubated for a further 3-4 hours. The test substances are then pipetted onto the microtitre plate, and 5 minutes after the transfer of the test substances into the wells of the microtitre plate the plate is transferred into the luminometer, a PAR1 agonist concentration which corresponds to the EC50 is added and the resulting light signal is immediately measured in the luminometer. To distinguish an antagonist substance action from a toxic action, the endogenous purinergic receptor is immediately subsequently activated with agonist (ATP, final concentration 10 μM) and the resulting light signal is measured.

CCc1ccc(C2CC(c3nc(-c4cccc(OC)c4)no3)CN(C(=O)N3CCOCC3)C2)cc1 (racemic) [Example 28, 4-({3-(4-Ethylphenyl)-5-[3-(3-methoxyphenyl)-1,2,4-oxadiazol-5-yl]piperidin-1-yl}carbonyl)-morpholine] and CCc1ccc(C2CC(c3nc(-c4ccc(F)cc4F)no3)CN(C(=O)N3CCOCC3)C2)cc1 (racemic) [Example 37, 4-({3-[3-(2,4-Difluorophenyl)-1,2,4-oxadiazol-5-yl]-5-(4-ethylphenyl)piperidin-1-yl}carbonyl)-morpholine] are within 1.5-fold of each other in IC50: 28 nM for the first, 21 nM for the second.

Cc1ccncc1-c1csc(C2CC(c3ccc(C(F)(F)F)cc3)CN(C(=O)N3CCOCC3)C2)n1 (racemic) [Example 113, 4-({3-[4-(4-Methylpyridin-3-yl)-1,3-thiazol-2-yl]-5-[4-(trifluoromethyl)phenyl]piperidin-1-yl}carbonyl)morpholine] and O=C(N1CCOCC1)N1CC(c2ccc(C(F)(F)F)cc2)CC(c2nc(-c3cccnc3)cs2)C1 (racemic) [Example 119, 4-({3-(4-Pyridin-3-yl-1,3-thiazol-2-yl)-5-[4-(trifluoromethyl)phenyl]piperidin-1-yl}carbonyl)-morpholine] are within 1.5-fold of each other in IC50: 47 nM for the first, 68 nM for the second.

Going from O=C(N1CC(c2ccc(OC(F)(F)F)cc2)CC(c2nc(C3CC3)no2)C1)N1CCC(F)(F)C1 (racemic) [Example 144, {3-(3-Cyclopropyl-1,2,4-oxadiazol-5-yl)-5-[4-(trifluoromethoxy)phenyl]piperidin-1-yl}(3,3-difluoropyrrolidin-1-yl)methanone] to CC1CN(C(=O)N2CC(c3ccc(C(F)(F)F)cc3)CC(c3nc(C4CC4)no3)C2)C1 (racemic) [Example 181, {3-(3-Cyclopropyl-1,2,4-oxadiazol-5-yl)-5-[4-(trifluoromethyl)phenyl]piperidin-1-yl}(3-methylazetidin-1-yl)methanone], the IC50 rises from 8.51 nM to 28.8 nM (3.4-fold).

Cc1ccc(C2CC(c3nc(C(C)C)no3)CN(C(=O)N3CCOCC3)C2)cc1C (racemic) [Example 148, {3-(3,4-Dimethylphenyl)-5-[3-(propan-2-yl)-1,2,4-oxadiazol-5-yl]piperidin-1-yl}(morpholin-4-yl)methanone] and Cc1ccc(C2CC(c3nc(C(C)C)no3)CN(C(=O)N3CCC(O)CC3)C2)cc1C (racemic) [Example 234, {3-(3,4-Dimethylphenyl)-5-[3-(propan-2-yl)-1,2,4-oxadiazol-5-yl]piperidin-1-yl}(4-hydroxy-piperidin-1-yl)methanone] are within 1.5-fold of each other in IC50: 14 nM for the first, 15.4 nM for the second.

Compared with CCc1ccc(C2CC(c3nc(CCOC)no3)CN(C(=O)N3CCOCC3)C2)cc1 (racemic) [Example 150, {3-(4-Ethylphenyl)-5-[3-(2-methoxyethyl)-1,2,4-oxadiazol-5-yl]piperidin-1-yl}(morpholin-4-yl)methanone], CCc1ccc(C2CC(c3nc(CCOC)no3)CN(C(=O)N3CCC(O)CC3)C2)cc1 (racemic) [Example 183, {3-(4-Ethylphenyl)-5-[3-(2-methoxyethyl)-1,2,4-oxadiazol-5-yl]piperidin-1-yl}(4-hydroxy-piperidin-1-yl)methanone] is 1.7-fold higher in IC50: 19 nM for the first, 31.5 nM for the second.

CCc1ccc(C2CC(c3nc(C(C)(C)C)no3)CN(C(=O)N3CCC(O)CC3)C2)cc1 (racemic) [Example 152] and CCc1ccc(C2CC(c3nc(C(C)(C)O)no3)CN(C(=O)N3CCC(O)CC3)C2)cc1 (racemic) [Example 187, {3-(4-Ethylphenyl)-5-[3-(2-hydroxypropan-2-yl)-1,2,4-oxadiazol-5-yl]piperidin-1-yl}(4-hydroxy-piperidin-1-yl)methanone] are within 1.5-fold of each other in IC50: 48.1 nM for the first, 53.4 nM for the second.

O=C(N1CCOCC1)N1CC(c2ccc(C(F)(F)F)cc2)CC(c2noc(-c3cccc(F)c3)n2)C1 (racemic) [Example 159, {3-[5-(3-Fluorophenyl)-1,2,4-oxadiazol-3-yl]-5-[4-(trifluoromethyl)phenyl]piperidin-1-yl}-(morpholin-4-yl)methanone] and O=C(N1CCOCC1)N1CC(c2ccc(C(F)(F)F)cc2)CC(c2noc(-c3ccccc3)n2)C1 (racemic) [Example 160, Morpholin-4-yl{3-(5-phenyl-1,2,4-oxadiazol-3-yl)-5-[4(trifluoromethyl)phenyl]piperidin-1-yl}-methanone] are within 1.5-fold of each other in IC50: 4.61 nM for the first, 5.4 nM for the second.

First: CC(C)c1nc(C2CC(c3ccc(C(F)(F)F)cc3)CN(C(=O)N3CCOCC3)C2)no1 (racemic) [Example 169, Morpholin-4-yl{3-[5-(propan-2-yl)-1,2,4-oxadiazol-3-yl]-5-[4-(trifluoromethyl)phenyl]piperidin-1-yl}methanone]
Second: Cc1ccncc1-c1noc(C2CC(c3ccc(C(F)(F)F)cc3)CN(C(=O)N3CCOCC3)C2)n1 (racemic) [Example 329, {3-[3-(4-Methylpyridin-3-yl)-1,2,4-oxadiazol-5-yl]-5-[4-(trifluoromethyl)phenyl]piperidin-1-yl}-(morpholin-4-yl)methanone]
The IC50 of the first is 3.6-fold lower: 6.74 nM for the first, 24 nM for the second. The first is the more potent here.

Compared with Cc1ccc(C2CC(c3nc(C(C)C)no3)CN(C(=O)N3CCC(C#N)CC3)C2)cc1C (racemic) [Example 197, 1-({3-(3,4-Dimethylphenyl)-5-[3-(propan-2-yl)-1,2,4-oxadiazol-5-yl]piperidin-1-yl}carbonyl)-piperidine-4-carbonitrile], CC(C)c1noc(C2CC(c3ccc(C(F)(F)F)cc3)CN(C(=O)N3CCC(C#N)CC3)C2)n1 (racemic) [Example 284, 1-({3-[3-(Propan-2-yl)-1,2,4-oxadiazol-5-yl]-5-[4-(trifluoromethyl)phenyl]piperidin-1-yl}-carbonyl)piperidine-4-carbonitrile] is 8-fold lower in IC50: 77.5 nM for the first, 9.73 nM for the second. The second is the more potent here.

First: CC(C)(O)Cc1noc(C2CC(c3ccc(C(F)(F)F)cc3)CN(C(=O)N3CCC(C#N)CC3)C2)n1 (racemic) [Example 212, 1-({3-[3-(2-Hydroxy-2-methylpropyl)-1,2,4-oxadiazol-5-yl]-5-[4-(trifluoromethyl)phenyl]-piperidin-1-yl}carbonyl)piperidine-4-carbonitrile]
Second: CC(C)(C)c1noc(C2CC(c3ccc(C(F)(F)F)cc3)CN(C(=O)N3CCC(C#N)CC3)C2)n1 (racemic) [Example 283, 1-({3-(3-tert-Butyl-1,2,4-oxadiazol-5-yl)-5-[4-(trifluoromethyl)phenyl]piperidin-1-yl}carbonyl)-piperidine-4-carbonitrile]
The IC50 of the first is 9.5-fold higher: 142 nM for the first, 14.9 nM for the second.

Compared with Cc1cc(C2CC(c3nc(-c4cccc(F)c4)no3)CN(C(=O)N3CCC(O)CC3)C2)ccc1OC(F)(F)F (racemic) [Example 229, {3-[3-(3-Fluorophenyl)-1,2,4-oxadiazol-5-yl]-5-[3-methyl-4-(trifluoromethoxy)phenyl]piperidin-1-yl}(4-hydroxypiperidin-1-yl)methanone], Cc1ccc(C2CC(c3nc(-c4cccc(F)c4)no3)CN(C(=O)N3CCC(O)CC3)C2)cc1C (racemic) [Example 232, {3-(3,4-Dimethylphenyl)-5-[3-(3-fluorophenyl)-1,2,4-oxadiazol-5-yl]piperidin-1-yl}(4-hydroxy-piperidin-1-yl)methanone] is 3.7-fold higher in IC50: 1.72 nM for the first, 6.44 nM for the second.

First: Cc1cc(C2CC(c3nc(C4CC4)no3)CN(C(=O)N3CCC(O)CC3)C2)ccc1OC(F)(F)F (racemic) [Example 230, {3-(3-Cyclopropyl-1,2,4-oxadiazol-5-yl)-5-[3-methyl-4-(trifluoromethoxy)phenyl]piperidin-1-yl}(4-hydroxypiperidin-1-yl)methanone]
Second: Cc1cc(-c2noc(C3CC(c4ccc(OC(F)(F)F)cc4)CN(C(=O)N4CCOCC4)C3)n2)no1 (racemic) [Example 249, {3-[3-(5-Methylisoxazol-3-yl)-1,2,4-oxadiazol-5-yl]-5-[4-(trifluoromethoxy)phenyl]piperidin-1-yl}(morpholin-4-yl)methanone]
The IC50 of the first is 4.7-fold lower: 2.81 nM for the first, 13.1 nM for the second.
